Measured values published in the supplement of paper PMC4932681.

Assays:
[1] = test system: BT-474 Tam1; assay: drug sensitivity score (DSS) (DSS (dimensionless)); higher = more sensitive; extreme values may be limits of the assay; conditions: 4-OH-tamoxifen in medium 1 µM; 72 h
Procedure, shortened: (§1)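 After seeding into 384-well plates with library drugs at five concentrations spanning a 10 000-fold range, breast cancer cell lines and their resistant derivatives were incubated 72 h at 37 °C. Resistant lines received medium with 1 μM of the selecting drug. CellTiter-Glo signal was read on a PHERAstar and scaled to vehicle-only and positive controls. Drug sensitivity score, relative IC50 (the curve midpoint) and top-dose inhibition came from logistic fits run in the Breeze pipeline.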

[2] = test system: BT-474 Tam2; assay: as above; conditions: 4-OH-tamoxifen in medium 1 µM; 72 h
Procedure, shortened: as §1

[3] = test system: BT-474; assay: as above; conditions: 72 h
Procedure, shortened: as §1

[4] = test system: MCF-7 Tam1; assay: as above; conditions: 4-OH-tamoxifen in medium 1 µM; 72 h
Procedure, shortened: as §1

[5] = test system: MCF-7; assay: as above; conditions: 72 h
Procedure, shortened: as §1

[6] = test system: T-47D Tam1; assay: as above; conditions: 4-OH-tamoxifen in medium 1 µM; 72 h
Procedure, shortened: as §1

[7] = test system: T-47D Tam2; assay: as above; conditions: 4-OH-tamoxifen in medium 1 µM; 72 h
Procedure, shortened: as §1

[8] = test system: T-47D; assay: as above; conditions: 72 h
Procedure, shortened: as §1

[9] = test system: ZR-75-1 Tam1; assay: as above; conditions: 4-OH-tamoxifen in medium 1 µM; 72 h
Procedure, shortened: as §1

[10] = test system: ZR-75-1 Tam2; assay: as above; conditions: 4-OH-tamoxifen in medium 1 µM; 72 h
Procedure, shortened: as §1

[11] = test system: ZR-75-1; assay: as above; conditions: 72 h
Procedure, shortened: as §1

[12] = test system: BT-474 Tam1; assay: relative IC50 (midpoint of fitted logistic curve, plateau may be below 50% inhibition; CellTiter-Glo viability); higher = less potent; conditions: 4-OH-tamoxifen in medium 1 µM; 72 h
Procedure, shortened: as §1

[13] = test system: BT-474 Tam2; assay: as above; conditions: 4-OH-tamoxifen in medium 1 µM; 72 h
Procedure, shortened: as §1

[14] = test system: BT-474; assay: as above; conditions: 72 h
Procedure, shortened: as §1

[15] = test system: MCF-7 Tam1; assay: as above; conditions: 4-OH-tamoxifen in medium 1 µM; 72 h
Procedure, shortened: as §1

[16] = test system: MCF-7; assay: as above; conditions: 72 h
Procedure, shortened: as §1

[17] = test system: T-47D Tam1; assay: as above; conditions: 4-OH-tamoxifen in medium 1 µM; 72 h
Procedure, shortened: as §1

[18] = test system: T-47D Tam2; assay: as above; conditions: 4-OH-tamoxifen in medium 1 µM; 72 h
Procedure, shortened: as §1

[19] = test system: T-47D; assay: as above; conditions: 72 h
Procedure, shortened: as §1

[20] = test system: ZR-75-1 Tam1; assay: as above; conditions: 4-OH-tamoxifen in medium 1 µM; 72 h
Procedure, shortened: as §1

[21] = test system: ZR-75-1 Tam2; assay: as above; conditions: 4-OH-tamoxifen in medium 1 µM; 72 h
Procedure, shortened: as §1

[22] = test system: ZR-75-1; assay: as above; conditions: 72 h
Procedure, shortened: as §1

| SMILES | drug sensitivity score [1] | drug sensitivity score [2] | drug sensitivity score ([3]; 4-OH-tamoxifen in medium 0 µM) | drug sensitivity score ([3]; 4-OH-tamoxifen in medium 1 µM) | drug sensitivity score [4] | drug sensitivity score ([5]; 4-OH-tamoxifen in medium 0 µM) | drug sensitivity score ([5]; 4-OH-tamoxifen in medium 1 µM) | drug sensitivity score [6] | drug sensitivity score [7] | drug sensitivity score ([8]; 4-OH-tamoxifen in medium 0 µM) | drug sensitivity score ([8]; 4-OH-tamoxifen in medium 1 µM) | drug sensitivity score [9] | drug sensitivity score [10] | drug sensitivity score ([11]; 4-OH-tamoxifen in medium 0 µM) | drug sensitivity score ([11]; 4-OH-tamoxifen in medium 1 µM) | relative IC50 [12] | relative IC50 [13] | relative IC50 ([14]; 4-OH-tamoxifen in medium 0 µM) | relative IC50 ([14]; 4-OH-tamoxifen in medium 1 µM) | relative IC50 [15] | relative IC50 ([16]; 4-OH-tamoxifen in medium 0 µM) | relative IC50 ([16]; 4-OH-tamoxifen in medium 1 µM) | relative IC50 [17] | relative IC50 [18] | relative IC50 ([19]; 4-OH-tamoxifen in medium 0 µM) | relative IC50 ([19]; 4-OH-tamoxifen in medium 1 µM) | relative IC50 [20] | relative IC50 [21] | relative IC50 ([22]; 4-OH-tamoxifen in medium 0 µM) | relative IC50 ([22]; 4-OH-tamoxifen in medium 1 µM) |
| --- | --- | --- | --- | --- | --- | --- | --- | --- | --- | --- | --- | --- | --- | --- | --- | --- | --- | --- | --- | --- | --- | --- | --- | --- | --- | --- | --- | --- | --- | --- |
| c1cc(CN2CCCNCCNCCCNCC2)ccc1CN1CCCNCCNCCCNCC1 [Plerixafor] | 0 | 0 | 0 | 0 | 0 | 0 | 0 | 0 | 0 | 0.403 | 0 | 0 | 0 | 0 | 0 | > 2.5 µM | > 2.5 µM | > 2.5 µM | > 2.5 µM | > 2.5 µM | > 2.5 µM | > 2.5 µM | > 2.5 µM | > 2.5 µM | > 2.5 µM | > 2.5 µM | > 2.5 µM | > 2.5 µM | > 2.5 µM | > 2.5 µM |
| O=C(Nc1cccnc1)N1CCC(Cc2cccc(Oc3ccc(C(F)(F)F)cn3)c2)CC1 [PF-3845] | 23.7 | 20.4 | 18.1 | 21.2 | 9.98 | 16.5 | 19.2 | 17.5 | 13.7 | 11.6 | 10.7 | 18.7 | 18.8 | 10.2 | 19.7 | 0.102 µM | 0.187 µM | 0.245 µM | 0.157 µM | 1.97 µM | 0.161 µM | 0.14 µM | 0.295 µM | 0.429 µM | 0.278 µM | 3.62 µM | 0.218 µM | 0.233 µM | 0.725 µM | 0.179 µM |
| O=C1CCC(N2C(=O)c3ccccc3C2=O)C(=O)N1 (stereo not given) [Thalidomide] | 0 | 0 | 0 | 0 | 0 | 0 | 0 | 0 | 0 | 0 | 0 | 0 | 0 | 0 | 0.0754 | > 10 µM | > 10 µM | > 10 µM | > 10 µM | > 10 µM | > 10 µM | > 10 µM | > 10 µM | > 10 µM | > 10 µM |  | > 10 µM | > 10 µM | > 10 µM |  |
| NC(=O)NO [Hydroxyurea] | 0 | 0 | 0 | 0.154 | 0 | 0 | 0 | 0 | 0 | 0 | 0 | 0 | 0 | 0 | 0 | > 100 µM | > 100 µM | > 100 µM |  | > 100 µM | > 100 µM |  | > 100 µM | > 100 µM | > 100 µM | > 100 µM | > 100 µM | > 100 µM | > 100 µM | > 100 µM |
| N.N.[Cl][Pt][Cl] [Cisplatin] | 0 | 0 | 0 | 0 | 0 | 0 | 0 | 0 | 0 | 0 | 0 | 0 | 0 | 0 | 0 | > 10 µM | > 10 µM | > 10 µM | > 10 µM | > 10 µM | > 10 µM | > 10 µM | > 10 µM | > 10 µM | > 10 µM | > 10 µM | > 10 µM | > 10 µM | > 10 µM | > 10 µM |
| C[C@H]1C[C@@H]2[C@H]([C@@H](O)C[C@@]3(C)[C@H]2CC[C@]3(O)C(=O)CO)[C@@]2(C)C=CC(=O)C=C12 [Methylprednisolone] | 0 | 0 | 0 | 0 | 0 | 0 | 0.455 | 0 | 0 | 0 | 0 | 0 | 0 | 0 | 0 | > 10 µM | > 10 µM | > 10 µM | > 10 µM | > 10 µM | > 10 µM |  | > 10 µM | > 10 µM | > 10 µM | > 10 µM | > 10 µM | > 10 µM | > 10 µM | > 10 µM |
| CN[C@@H]1C[C@H]2O[C@@](C)([C@@H]1OC)n1c3ccccc3c3c4c(c5c6ccccc6n2c5c31)C(=O)N[C@H]4O [UCN-01] | 13.4 | 15.6 | 10.8 | 13.3 | 14.3 | 17.1 | 15.8 | 10.2 | 8.25 | 9.64 | 8.4 | 8.97 | 9.41 | 9.37 | 6.62 | 0.588 µM | 0.409 µM | 0.467 µM | 0.525 µM | 0.486 µM | 0.198 µM | 0.355 µM | 0.736 µM | 0.855 µM | 0.598 µM | 0.864 µM | 0.615 µM | 0.686 µM | 0.437 µM | 1.01 µM |
| O=P(O)(NCCCl)NCCCl [Ifosfamide mustard] | 0 | 0 | 0 | 0 | 0 | 0 | 0 | 0 | 0 | 0 | 0 | 0 | 0 | 0 | 0 | > 10 µM | > 10 µM | > 10 µM | > 10 µM | > 10 µM | > 10 µM | > 10 µM | > 10 µM | > 10 µM | > 10 µM | > 10 µM | > 10 µM | > 10 µM | > 10 µM | > 10 µM |
